# Measurements reported in patent publication US6737383B1, “Herbicidal oxadiazolidines” (priority 1999, dated 2004).
# What was measured:
# wild oat = assay: Test B pre/postemergence wild oat; assay type: in vivo, Avena fatua
# Method in brief: (§1)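 Response is a visual 0-to-10 score relative to untreated plants, where 0 means no effect and 10 means complete control, taken twelve to sixteen days after application. Treatments went onto soil at planting and onto foliage of 1- to 4-leaf plants, using a surfactant-containing non-phytotoxic solvent.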
# rape = assay: Test B pre/postemergence rape; assay type: in vivo, Brassica napus
# Method in brief: as §1
# rice = assay: Test B flood test rice; assay type: in vivo, Oryza sativa
# Method in brief: (§2)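 Flood test on plants grown to the 2-leaf stage; treated plants kept in greenhouse twelve to sixteen days, then visually rated against controls on a 0 (no effect) to 10 (complete control) scale.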
# soybean = assay: Test B pre/postemergence soybean; assay type: in vivo, Glycine max
# Method in brief: as §1
# duck salad = assay: Test B flood test duck salad; assay type: in vivo, Heteranthera limosa
# Method in brief: as §2
# velvetleaf = assay: Test B pre/postemergence velvetleaf; assay type: in vivo, Abutilon theophrasti
# Method in brief: as §1
# blackgrass = assay: Test B pre/postemergence blackgrass; assay type: in vivo, Alopecurus myosuroides
# Method in brief: as §1
# wheat = assay: Test B pre/postemergence wheat; assay type: in vivo, Triticum aestivum
# Method in brief: as §1
# purple nutsedge = assay: Test B pre/postemergence purple nutsedge; assay type: in vivo, Cyperus rotundus
# Method in brief: as §1
# pigweed = assay: Test B pre/postemergence pigweed; assay type: in vivo, Amaranthus retroflexus
# Method in brief: as §1
# crabgrass = assay: Test B pre/postemergence crabgrass; assay type: in vivo, Digitaria sanguinalis
# Method in brief: as §1
# bedstraw = assay: Test B pre/postemergence bedstraw; assay type: in vivo, Galium aparine
# Method in brief: as §1
# morningglory = assay: Test B pre/postemergence morningglory; assay type: in vivo, Ipomoea hederacea
# Method in brief: as §1
# giant foxtail = assay: Test B pre/postemergence giant foxtail; assay type: in vivo, Setaria faberii
# Method in brief: as §1
# corn = assay: Test B pre/postemergence corn; assay type: in vivo, Zea mays
# Method in brief: as §1
# surinam grass = assay: Test B pre/postemergence surinam grass; assay type: in vivo, Brachiaria decumbens
# Method in brief: as §1
# [1] = Preemergence, Rate 62 g/ha, scale of 0 to 10 where 0 is no effect and 10 is complete control
# [2] = Preemergence, Rate 250 g/ha, scale of 0 to 10 where 0 is no effect and 10 is complete control
# [3] = Preemergence, Rate 500 g/ha, scale of 0 to 10 where 0 is no effect and 10 is complete control
# [4] = Rate 62 g/ha, Postemergence, scale of 0 to 10 where 0 is no effect and 10 is complete control
# [5] = Rate 125 g/ha, Postemergence, scale 0 to 10
# [6] = Rate 125 g/ha, Preemergence, scale of 0 to 10 where 0 is no effect and 10 is complete control
# [7] = Rate 500 g/ha, Postemergence, scale 0 to 10
# [8] = Rate 62 g/ha, headed Pre-emergence (flood test species), scale 0 to 10 (0 no effect, 10 complete control)
# [9] = Rate 125 g/ha, Pre-emergence, flood test species, scale 0 to 10 where 0 is no effect and 10 is complete control
# [10] = Rate 250 g/ha, Pre-emergence, flood-test species, scale 0 to 10, 0 is no effect, 10 is complete control
# [11] = Rate 500 g/ha, Pre-emergence, flood test species, scale 0 to 10 (0 no effect, 10 complete control)
smiles,measurement,setting,value
CC(C)N(C(=O)n1oc(=O)n(CC(=O)C(C)(C)C)c1=O)c1ccc(F)cc1 [Compound 216],Wild oats plant response rating,wild oat; [1],0
same,Wild oats plant response rating,wild oat; [2],0
same,"Plant response rating, Wild oats",wild oat; [3],0
same,Wild oats plant response rating,wild oat; [4],0
same,Wild oats plant response rating,wild oat; [5],0
same,Wild oats plant response rating,wild oat; [6],0
same,"Plant response rating (0 to 10; 0 is no effect, 10 is complete control), Wild oats","wild oat; Rate 250 g/ha, Postemergence",0
same,Rape plant response rating,rape; [1],0
same,Rape plant response rating,rape; [2],0
same,"Plant response rating, Rape",rape; [3],0
same,Rape plant response rating,rape; [4],0
same,Rape plant response rating,rape; [5],0
same,Rape plant response rating,rape; [6],0
same,"Plant response rating (0 to 10; 0 is no effect, 10 is complete control), Rape","rape; Rate 250 g/ha, Postemergence",0
same,Rape plant response rating,rape; [7],3
same,Rice plant response rating,rice; [8],0
same,Rice plant response rating,rice; [9],0
same,Rice plant response rating,rice; [10],0
same,Rice plant response rating,rice; [11],0
same,Soybean plant response rating,soybean; [1],0
same,Soybean plant response rating,soybean; [2],0
same,"Plant response rating, Soybean",soybean; [3],0
same,Soybean plant response rating,soybean; [4],1
same,Soybean plant response rating,soybean; [5],1
same,Soybean plant response rating,soybean; [6],0
same,"Plant response rating (0 to 10; 0 is no effect, 10 is complete control), Soybean","soybean; Rate 250 g/ha, Postemergence",1
same,Soybean plant response rating,soybean; [7],2
same,Ducksalad plant response rating,duck salad; [8],0
same,Ducksalad plant response rating,duck salad; [9],0
same,Ducksalad plant response rating,duck salad; [10],0
same,Ducksalad plant response rating,duck salad; [11],0
same,Velvetleaf plant response rating,velvetleaf; [1],0
same,Velvetleaf plant response rating,velvetleaf; [2],0
same,"Plant response rating, Velvetleaf",velvetleaf; [3],0
same,Velvetleaf plant response rating,velvetleaf; [4],0
same,Velvetleaf plant response rating,velvetleaf; [5],0
same,Velvetleaf plant response rating,velvetleaf; [6],0
same,"Plant response rating (0 to 10; 0 is no effect, 10 is complete control), Velvetleaf","velvetleaf; Rate 250 g/ha, Postemergence",0
same,Blackgrass plant response rating,blackgrass; [1],0
same,Blackgrass plant response rating,blackgrass; [2],4
same,"Plant response rating, Blackgrass",blackgrass; [3],4
same,Blackgrass plant response rating,blackgrass; [4],0
same,Blackgrass plant response rating,blackgrass; [5],4
same,Blackgrass plant response rating,blackgrass; [6],2
same,"Plant response rating (0 to 10; 0 is no effect, 10 is complete control), Blackgrass","blackgrass; Rate 250 g/ha, Postemergence",8
same,Blackgrass plant response rating,blackgrass; [7],8
same,Wheat plant response rating,wheat; [1],0
same,Wheat plant response rating,wheat; [2],0
same,"Plant response rating, Wheat",wheat; [3],0
same,Wheat plant response rating,wheat; [4],0
same,Wheat plant response rating,wheat; [5],0
same,Wheat plant response rating,wheat; [6],0
same,"Plant response rating (0 to 10; 0 is no effect, 10 is complete control), Wheat","wheat; Rate 250 g/ha, Postemergence",0
same,Nutsedge plant response rating,purple nutsedge; [1],0
same,Nutsedge plant response rating,purple nutsedge; [2],0
same,"Plant response rating, Nutsedge",purple nutsedge; [3],0
same,Nutsedge plant response rating,purple nutsedge; [4],0
same,Nutsedge plant response rating,purple nutsedge; [5],0
same,Nutsedge plant response rating,purple nutsedge; [6],0
same,"Plant response rating (0 to 10; 0 is no effect, 10 is complete control), Nutsedge","purple nutsedge; Rate 250 g/ha, Postemergence",0
same,Nutsedge plant response rating,purple nutsedge; [7],0
same,Redroot pigweed plant response rating,pigweed; [1],0
same,Redroot pigweed plant response rating,pigweed; [2],2
same,"Plant response rating, Redroot pigweed",pigweed; [3],8
same,Redroot pigweed plant response rating,pigweed; [4],0
same,Redroot pigweed plant response rating,pigweed; [5],0
same,Redroot pigweed plant response rating,pigweed; [6],0
same,"Plant response rating (0 to 10; 0 is no effect, 10 is complete control), Redroot pigweed","pigweed; Rate 250 g/ha, Postemergence",2
same,Redroot pigweed plant response rating,pigweed; [7],3
same,Crabgrass plant response rating,crabgrass; [1],0
same,Crabgrass plant response rating,crabgrass; [2],8
same,"Plant response rating, Crabgrass",crabgrass; [3],8
same,Crabgrass plant response rating,crabgrass; [4],0
same,Crabgrass plant response rating,crabgrass; [5],2
same,Crabgrass plant response rating,crabgrass; [6],3
same,"Plant response rating (0 to 10; 0 is no effect, 10 is complete control), Crabgrass","crabgrass; Rate 250 g/ha, Postemergence",4
same,Crabgrass plant response rating,crabgrass; [7],7
same,Bedstraw plant response rating,bedstraw; [1],0
same,Bedstraw plant response rating,bedstraw; [2],0
same,"Plant response rating, Bedstraw",bedstraw; [3],0
same,Bedstraw plant response rating,bedstraw; [4],0
same,Bedstraw plant response rating,bedstraw; [5],0
same,Bedstraw plant response rating,bedstraw; [6],0
same,"Plant response rating (0 to 10; 0 is no effect, 10 is complete control), Bedstraw","bedstraw; Rate 250 g/ha, Postemergence",2
same,Morningglory plant response rating,morningglory; [1],0
same,Morningglory plant response rating,morningglory; [2],0
same,"Plant response rating, Morningglory",morningglory; [3],0
same,Morningglory plant response rating,morningglory; [4],3
same,Morningglory plant response rating,morningglory; [5],4
same,Morningglory plant response rating,morningglory; [6],0
same,"Plant response rating (0 to 10; 0 is no effect, 10 is complete control), Morningglory","morningglory; Rate 250 g/ha, Postemergence",7
same,Morningglory plant response rating,morningglory; [7],10
same,Giant foxtail plant response rating,giant foxtail; [1],0
same,Giant foxtail plant response rating,giant foxtail; [2],7
same,"Plant response rating, Giant foxtail",giant foxtail; [3],9
same,Giant foxtail plant response rating,giant foxtail; [4],0
same,Giant foxtail plant response rating,giant foxtail; [5],2
same,Giant foxtail plant response rating,giant foxtail; [6],6
same,"Plant response rating (0 to 10; 0 is no effect, 10 is complete control), Giant foxtail","giant foxtail; Rate 250 g/ha, Postemergence",4
same,Giant foxtail plant response rating,giant foxtail; [7],6
same,Corn plant response rating,corn; [1],0
same,Corn plant response rating,corn; [2],0
same,"Plant response rating, Corn",corn; [3],0
same,Corn plant response rating,corn; [4],0
same,Corn plant response rating,corn; [5],0
same,Corn plant response rating,corn; [6],0
same,"Plant response rating (0 to 10; 0 is no effect, 10 is complete control), Corn","corn; Rate 250 g/ha, Postemergence",2
same,Corn plant response rating,corn; [7],3
same,B. signalgrass plant response rating,surinam grass; [1],0
same,B. signalgrass plant response rating,"surinam grass; Preemergence, Rate 250 g/ha, scale 0 to 10, 0 is no effect, 10 is complete control",4
same,"Plant response rating, B. signalgrass",surinam grass; [3],4
same,B. signalgrass plant response rating,surinam grass; [4],0
same,B. signalgrass plant response rating,"surinam grass; Rate 125 g/ha, Postemergence, scale 0 (no effect) to 10 (complete control)",2
same,B. signalgrass plant response rating,surinam grass; [6],1
same,"Plant response rating (0 to 10; 0 is no effect, 10 is complete control), B. signalgrass","surinam grass; Rate 250 g/ha, Postemergence",5
same,B. signalgrass plant response rating,"surinam grass; Rate 500 g/ha, Postemergence, scale 0 to 10, 0 no effect, 10 complete control",8
